According to PubChem BioAssay AID2060500 (Molecular Pharmacology Branch, DTP, NCI, 2025):

Tested on: 596521-263-R-J1-PDC complex spheroids, viability % of control
Experiment: Anticancer human tumor 596521-263-R-J1-PDC patient-derived soft tissue sarcoma cell line growth inhibition [GQUAD]
Conditions: for IC50: curve of first compound; for viability, T/C: stronger effect = lower value
In short: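 Viability of tumor cells grown as complex spheroids with endothelial and stromal cells, exposed to drug combinations. Top concentration at or near clinical Cmax (else 10 microM), diluted in half-log increments.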

[1] = second compound 0.0316 µM, first compound 0.0316 µM
[2] = second compound 0.0316 µM, first compound 0.1 µM
[3] = second compound 0.0316 µM, first compound 0.316 µM
[4] = second compound 0.0316 µM, first compound 1 µM
[5] = second compound 0.0316 µM, first compound 3.16 µM
[6] = second compound 0.0316 µM, first compound 10 µM
[7] = second compound 0.1 µM, first compound 0.0316 µM
[8] = second compound 0.1 µM, first compound 0.1 µM
[9] = second compound 0.1 µM, first compound 0.316 µM
[10] = second compound 0.1 µM, first compound 1 µM
[11] = second compound 0.1 µM, first compound 3.16 µM
[12] = second compound 0.1 µM, first compound 10 µM
[13] = second compound 0.316 µM, first compound 0.0316 µM
[14] = second compound 0.316 µM, first compound 0.1 µM
[15] = second compound 0.316 µM, first compound 0.316 µM
[16] = second compound 0.316 µM, first compound 1 µM
[17] = second compound 0.316 µM, first compound 3.16 µM
[18] = second compound 0.316 µM, first compound 10 µM
[19] = second compound 1 µM, first compound 0.0316 µM
[20] = second compound 1 µM, first compound 0.1 µM
[21] = second compound 1 µM, first compound 0.316 µM
[22] = second compound 1 µM, first compound 1 µM
[23] = second compound 1 µM, first compound 3.16 µM
[24] = second compound 1 µM, first compound 10 µM
[25] = second compound 3.16 µM, first compound 0.0316 µM
[26] = second compound 3.16 µM, first compound 0.1 µM
[27] = second compound 3.16 µM, first compound 0.316 µM
[28] = second compound 3.16 µM, first compound 1 µM
[29] = second compound 3.16 µM, first compound 3.16 µM
[30] = second compound 3.16 µM, first compound 10 µM
[31] = second compound 10 µM, first compound 0.0316 µM
[32] = second compound 10 µM, first compound 0.1 µM
[33] = second compound 10 µM, first compound 0.316 µM
[34] = second compound 10 µM, first compound 1 µM
[35] = second compound 10 µM, first compound 3.16 µM
[36] = second compound 10 µM, first compound 10 µM
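Also: spheroids exposed to drugs for 7 days before viability reading.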
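For viability, T/C in this document: 100% = DMSO vehicle control viability.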

O=C(NO)c1cnc(N2CCN(S(=O)(=O)c3ccc4ccccc4c3)CC2)nc1 + Cc1[nH]c2ccc(F)cc2c1-c1nc2c3cccnc3c3ncccc3c2[nH]1
IC50 (second compound 0.0316 µM): < 0.0316 µM
IC50 (second compound 0.1 µM): < 0.0316 µM
IC50 (second compound 0.316 µM): < 0.0316 µM
IC50 (second compound 1 µM): < 0.0316 µM
IC50 (second compound 3.16 µM): < 0.0316 µM
IC50 (second compound 10 µM): < 0.0316 µM
viability, T/C [1]: 37.6%
viability, T/C [2]: 28.2%
viability, T/C [3]: 30.4%
viability, T/C [4]: 28.5%
viability, T/C [5]: 27.2%
viability, T/C [6]: 30.4%
viability, T/C [7]: 39.1%
viability, T/C [8]: 25.8%
viability, T/C [9]: 25.8%
viability, T/C [10]: 22%
viability, T/C [11]: 29.8%
viability, T/C [12]: 28%
viability, T/C [13]: 38.3%
viability, T/C [14]: 29.6%
viability, T/C [15]: 29.6%
viability, T/C [16]: 27%
viability, T/C [17]: 26.9%
viability, T/C [18]: 25.5%
viability, T/C [19]: 39.1%
viability, T/C [20]: 30.3%
viability, T/C [21]: 29.2%
viability, T/C [22]: 25.8%
viability, T/C [23]: 27.6%
viability, T/C [24]: 29.3%
viability, T/C [25]: 39.5%
viability, T/C [26]: 34.5%
viability, T/C [27]: 29.7%
viability, T/C [28]: 27.1%
viability, T/C [29]: 26.1%
viability, T/C [30]: 27.7%
viability, T/C [31]: 44.2%
viability, T/C [32]: 31.5%
viability, T/C [33]: 29.5%
viability, T/C [34]: 28.9%
viability, T/C [35]: 29.6%
viability, T/C [36]: 29.8%

CC(C)(O)C1CCC(Nc2ccc3ncc(-c4cccc(C(F)(F)F)c4)n3n2)CC1 (stereo not given) + Cc1[nH]c2ccc(F)cc2c1-c1nc2c3cccnc3c3ncccc3c2[nH]1
IC50 (second compound 0.0316 µM): > 10 µM
IC50 (second compound 0.1 µM): > 10 µM
IC50 (second compound 0.316 µM): > 10 µM
IC50 (second compound 1 µM): > 10 µM
IC50 (second compound 3.16 µM): > 10 µM
IC50 (second compound 10 µM): > 10 µM
viability, T/C [1]: 98.3%
viability, T/C [2]: 96.8%
viability, T/C [3]: 97.9%
viability, T/C [4]: 101%
viability, T/C [5]: 102%
viability, T/C [6]: 87.2%
viability, T/C [7]: 120%
viability, T/C [8]: 92.5%
viability, T/C [9]: 92.3%
viability, T/C [10]: 100%
viability, T/C [11]: 96.4%
viability, T/C [12]: 81.7%
viability, T/C [13]: 98.5%
viability, T/C [14]: 90.6%
viability, T/C [15]: 103%
viability, T/C [16]: 92.3%
viability, T/C [17]: 103%
viability, T/C [18]: 82.9%
viability, T/C [19]: 90.7%
viability, T/C [20]: 88.5%
viability, T/C [21]: 98.5%
viability, T/C [22]: 101%
viability, T/C [23]: 106%
viability, T/C [24]: 79.5%
viability, T/C [25]: 89.3%
viability, T/C [26]: 96.5%
viability, T/C [27]: 94.1%
viability, T/C [28]: 83.2%
viability, T/C [29]: 95.2%
viability, T/C [30]: 80.6%
viability, T/C [31]: 77.7%
viability, T/C [32]: 92%
viability, T/C [33]: 91%
viability, T/C [34]: 86.4%
viability, T/C [35]: 84.9%
viability, T/C [36]: 68.6%

COc1ccc([C@@H](O)c2cc(-c3ncnc4cc(N5CCOCC5)ccc34)c(F)cc2Cl)nn1 + CN(C)c1ccc(Nc2c3ccc(NC(=O)CCN4CCCC4)cc3nc3cc(NC(=O)CCN4CCCC4)ccc23)cc1
IC50 (second compound 0.0316 µM): 7.69 µM
IC50 (second compound 0.1 µM): 9.12 µM
IC50 (second compound 0.316 µM): > 10 µM
IC50 (second compound 1 µM): 7.49 µM
IC50 (second compound 3.16 µM): > 10 µM
IC50 (second compound 10 µM): 1.16 µM
viability, T/C [1]: 95.1%
viability, T/C [2]: 91.2%
viability, T/C [3]: 97.5%
viability, T/C [4]: 88.4%
viability, T/C [5]: 67.7%
viability, T/C [6]: 44.8%
viability, T/C [7]: 89.5%
viability, T/C [8]: 101%
viability, T/C [9]: 91.9%
viability, T/C [10]: 77.1%
viability, T/C [11]: 65.6%
viability, T/C [12]: 48.1%
viability, T/C [13]: 96.1%
viability, T/C [14]: 94.2%
viability, T/C [15]: 81.1%
viability, T/C [16]: 81.8%
viability, T/C [17]: 64.1%
viability, T/C [18]: 51.8%
viability, T/C [19]: 93.8%
viability, T/C [20]: 84.3%
viability, T/C [21]: 93.9%
viability, T/C [22]: 83.4%
viability, T/C [23]: 63.2%
viability, T/C [24]: 45.6%
viability, T/C [25]: 87.4%
viability, T/C [26]: 87.5%
viability, T/C [27]: 84.7%
viability, T/C [28]: 66.1%
viability, T/C [29]: 64.1%
viability, T/C [30]: 49.5%
viability, T/C [31]: 70.5%
viability, T/C [32]: 56.7%
viability, T/C [33]: 59.1%
viability, T/C [34]: 48.4%
viability, T/C [35]: 49.4%
viability, T/C [36]: 31.6%

COc1cccc2c1C(=O)c1c(O)c3c(c(O)c1C2=O)CC(O)(C(=O)CO)CC3OC1CC(N)C(O)C(C)O1 (stereo not given) + Cc1[nH]c2ccc(F)cc2c1-c1nc2c3cccnc3c3ncccc3c2[nH]1
IC50 (second compound 0.0316 µM): 0.719 µM
IC50 (second compound 0.1 µM): 0.655 µM
IC50 (second compound 0.316 µM): 0.802 µM
IC50 (second compound 1 µM): 0.578 µM
IC50 (second compound 3.16 µM): 0.965 µM
IC50 (second compound 10 µM): 0.7 µM
viability, T/C [1]: 98%
viability, T/C [2]: 76.6%
viability, T/C [3]: 64%
viability, T/C [4]: 48.9%
viability, T/C [5]: 26.6%
viability, T/C [6]: 3.55%
viability, T/C [7]: 93.8%
viability, T/C [8]: 77%
viability, T/C [9]: 57.9%
viability, T/C [10]: 44.9%
viability, T/C [11]: 29.7%
viability, T/C [12]: 4.66%
viability, T/C [13]: 112%
viability, T/C [14]: 70.3%
viability, T/C [15]: 68%
viability, T/C [16]: 54.5%
viability, T/C [17]: 27.1%
viability, T/C [18]: 3.9%
viability, T/C [19]: 96.5%
viability, T/C [20]: 66.5%
viability, T/C [21]: 59.2%
viability, T/C [22]: 50.4%
viability, T/C [23]: 25.6%
viability, T/C [24]: 4.37%
viability, T/C [25]: 82.7%
viability, T/C [26]: 68.9%
viability, T/C [27]: 63.2%
viability, T/C [28]: 54.9%
viability, T/C [29]: 25.7%
viability, T/C [30]: 3.86%
viability, T/C [31]: 75.1%
viability, T/C [32]: 62.4%
viability, T/C [33]: 62.6%
viability, T/C [34]: 45.9%
viability, T/C [35]: 25.6%
viability, T/C [36]: 3.33%

CC1COCCN1c1cc(-c2ccnn2C)c2ccnc(-c3ccn[nH]3)c2n1 (stereo not given) + Cc1cnc(CNC(=O)c2c(=O)c3ccc(N4CCCN(C)CC4)nc3n3c2sc2ccccc23)cn1
IC50 (second compound 0.0316 µM): 0.333 µM
IC50 (second compound 0.1 µM): 0.367 µM
IC50 (second compound 0.316 µM): 0.191 µM
IC50 (second compound 1 µM): 0.0624 µM
IC50 (second compound 3.16 µM): 0.0909 µM
IC50 (second compound 10 µM): < 0.0316 µM
viability, T/C [1]: 55.9%
viability, T/C [2]: 55.6%
viability, T/C [3]: 48.3%
viability, T/C [4]: 42.5%
viability, T/C [5]: 27.4%
viability, T/C [6]: 23.2%
viability, T/C [7]: 53.1%
viability, T/C [8]: 65.6%
viability, T/C [9]: 47%
viability, T/C [10]: 41.8%
viability, T/C [11]: 29.7%
viability, T/C [12]: 28.1%
viability, T/C [13]: 57.4%
viability, T/C [14]: 51.3%
viability, T/C [15]: 49%
viability, T/C [16]: 41.2%
viability, T/C [17]: 33%
viability, T/C [18]: 25.1%
viability, T/C [19]: 52.2%
viability, T/C [20]: 47.8%
viability, T/C [21]: 42.9%
viability, T/C [22]: 34%
viability, T/C [23]: 26.8%
viability, T/C [24]: 26.6%
viability, T/C [25]: 49.8%
viability, T/C [26]: 52.3%
viability, T/C [27]: 45.3%
viability, T/C [28]: 38%
viability, T/C [29]: 29.4%
viability, T/C [30]: 21.2%
viability, T/C [31]: 39.7%
viability, T/C [32]: 35%
viability, T/C [33]: 33.3%
viability, T/C [34]: 30.4%
viability, T/C [35]: 25%
viability, T/C [36]: 14.1%
